This passage reports IC50 results from patent US20240425496A1, “AZETIDINYL PYRIMIDINES AND USES THEREOF” (Aerie Pharmaceuticals, Inc., priority 2021, published 2024).

In experiment [1] the target is JAK1 (Homo sapiens (Human), UniProt P23458). Kind of experiment: JAK kinase assay (KINASE-GLO luminescent), JAK1 enzyme. It is filed as biochemical. The following applies: JAK1 enzyme 10 nM, Abl peptide substrate. The method in brief: (§1)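 Kinase-Glo luminescence measures ATP remaining after 75 min at room temperature; ATP 2 μM in 4× stock. 11-point 1:5 dilutions, 2.5% DMSO final. Percent of DMSO control per concentration, IC50 by 4-parameter logistic fit.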
Chain of JAK1 (P23458 whole entry, species assumed): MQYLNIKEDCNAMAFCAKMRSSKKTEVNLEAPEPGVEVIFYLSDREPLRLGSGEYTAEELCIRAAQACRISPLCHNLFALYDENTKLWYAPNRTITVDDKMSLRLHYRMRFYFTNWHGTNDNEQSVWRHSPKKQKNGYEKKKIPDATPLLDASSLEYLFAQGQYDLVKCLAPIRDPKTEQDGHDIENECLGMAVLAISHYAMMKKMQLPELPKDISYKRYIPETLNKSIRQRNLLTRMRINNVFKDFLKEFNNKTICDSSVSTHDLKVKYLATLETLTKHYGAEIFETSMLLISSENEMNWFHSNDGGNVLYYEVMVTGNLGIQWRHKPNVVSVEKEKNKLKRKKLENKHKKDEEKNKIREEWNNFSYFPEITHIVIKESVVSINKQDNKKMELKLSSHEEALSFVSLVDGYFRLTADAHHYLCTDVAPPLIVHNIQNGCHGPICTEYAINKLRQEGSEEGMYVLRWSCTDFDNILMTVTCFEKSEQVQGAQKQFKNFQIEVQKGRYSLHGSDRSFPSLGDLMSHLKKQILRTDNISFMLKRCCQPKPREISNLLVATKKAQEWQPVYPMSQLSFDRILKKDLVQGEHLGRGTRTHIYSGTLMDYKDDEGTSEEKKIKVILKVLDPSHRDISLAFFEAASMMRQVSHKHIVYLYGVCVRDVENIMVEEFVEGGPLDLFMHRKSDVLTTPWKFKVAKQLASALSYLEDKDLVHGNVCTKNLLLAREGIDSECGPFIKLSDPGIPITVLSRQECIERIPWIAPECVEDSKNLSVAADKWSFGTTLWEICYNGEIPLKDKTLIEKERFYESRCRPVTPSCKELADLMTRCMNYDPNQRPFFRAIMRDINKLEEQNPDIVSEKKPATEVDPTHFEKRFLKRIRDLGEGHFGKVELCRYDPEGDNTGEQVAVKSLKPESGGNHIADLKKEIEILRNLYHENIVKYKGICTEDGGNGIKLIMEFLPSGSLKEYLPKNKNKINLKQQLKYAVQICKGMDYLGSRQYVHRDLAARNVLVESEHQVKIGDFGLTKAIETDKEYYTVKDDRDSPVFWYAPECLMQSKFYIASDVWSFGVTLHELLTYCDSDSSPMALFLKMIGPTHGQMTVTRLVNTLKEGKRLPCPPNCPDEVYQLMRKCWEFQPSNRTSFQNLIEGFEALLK

The target in experiment [2] is TYK2 (Homo sapiens (Human), UniProt P29597). Kind of experiment: JAK kinase assay (KINASE-GLO luminescent), TYK2 enzyme. Conditions: TYK2 enzyme 10 nM, Abl peptide substrate. Format: biochemical. The method in brief:
as §1

Chain of TYK2 (P29597 whole entry, species assumed): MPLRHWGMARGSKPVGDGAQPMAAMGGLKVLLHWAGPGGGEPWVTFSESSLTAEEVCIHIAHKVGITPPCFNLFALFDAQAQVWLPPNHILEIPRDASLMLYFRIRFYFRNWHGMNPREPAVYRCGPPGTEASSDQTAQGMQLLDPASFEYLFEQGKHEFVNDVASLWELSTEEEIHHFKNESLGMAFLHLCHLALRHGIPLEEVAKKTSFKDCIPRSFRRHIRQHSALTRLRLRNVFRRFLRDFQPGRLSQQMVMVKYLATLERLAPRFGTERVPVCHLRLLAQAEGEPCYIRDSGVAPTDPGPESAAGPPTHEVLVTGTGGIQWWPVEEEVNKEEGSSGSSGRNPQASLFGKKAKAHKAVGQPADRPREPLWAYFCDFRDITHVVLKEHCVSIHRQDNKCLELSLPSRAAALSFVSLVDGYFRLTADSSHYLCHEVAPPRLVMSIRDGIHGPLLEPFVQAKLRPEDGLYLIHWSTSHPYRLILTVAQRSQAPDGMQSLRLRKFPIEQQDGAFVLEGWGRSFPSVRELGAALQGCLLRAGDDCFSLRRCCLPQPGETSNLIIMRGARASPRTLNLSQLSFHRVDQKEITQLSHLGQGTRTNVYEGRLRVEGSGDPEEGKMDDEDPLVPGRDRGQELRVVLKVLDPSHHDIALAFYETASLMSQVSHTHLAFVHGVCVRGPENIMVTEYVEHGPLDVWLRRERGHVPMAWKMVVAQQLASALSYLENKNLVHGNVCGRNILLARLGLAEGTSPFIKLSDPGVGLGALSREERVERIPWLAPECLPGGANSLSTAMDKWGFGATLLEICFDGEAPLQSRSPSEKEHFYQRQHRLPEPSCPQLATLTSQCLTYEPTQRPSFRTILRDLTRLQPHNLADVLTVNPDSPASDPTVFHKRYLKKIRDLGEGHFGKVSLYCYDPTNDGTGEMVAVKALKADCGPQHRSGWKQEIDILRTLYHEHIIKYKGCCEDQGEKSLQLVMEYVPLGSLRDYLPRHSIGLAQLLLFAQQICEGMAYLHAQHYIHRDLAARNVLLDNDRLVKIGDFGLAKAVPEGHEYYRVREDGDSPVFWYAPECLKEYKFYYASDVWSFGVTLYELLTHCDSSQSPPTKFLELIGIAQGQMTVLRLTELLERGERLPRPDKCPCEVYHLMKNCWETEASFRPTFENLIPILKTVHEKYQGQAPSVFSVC

Broadly, the IC50 is the concentration at which inhibition is half-maximal. A low value points to inhibition by little substance. `Cc1cc(Nc2ncc(C)c(N3CC(CC#N)(NC(=O)Cc4ccccc4F)C3)n2)sn1` [E300]: the half-inhibitory concentration (IC50) in experiment [1] and in experiment [2] was less than 20 nM in each case.
Turning to `CCS(=O)(=O)NC1(CC#N)CN(c2nc(Nc3cc(C)ns3)ncc2C)C1` [E301], the figures for the IC50 in experiment [1] and in experiment [2] were less than 50 nM and less than 20 nM, respectively.
For `CCS(=O)(=O)NC1(CC#N)CN(c2nc(N(c3cc(C)ns3)S(=O)(=O)CC)ncc2C)C1` [E302] the same measures were less than 5000 nM and less than 1000 nM.
For `Cc1cc(Nc2ncc(C)c(N3CC(CC#N)(NC(=O)c4cccnc4)C3)n2)sn1` [E303] the same measures were less than 20 nM and less than 30 nM.
For `Cc1cc(Nc2ncc(C)c(N3CC(CC#N)(NC(=O)c4cccc(F)c4)C3)n2)sn1` [E304] the same measures were less than 10 nM and less than 10 nM.
For `Cc1cnc(Nc2cnn(C)c2)nc1N1CC(CC#N)(N[C@H]2CC[C@H](NC(=O)OC(C)(C)C)C2)C1` [E305], the IC50 in experiment [1] was greater than 1500 nM; in experiment [2] it was greater than 2000 nM.
For `Cc1cnc(Nc2cnn(C)c2)nc1N1CC(CC#N)(N[C@H]2CC[C@H](NS(C)(=O)=O)C2)C1` [E306] the same measures were less than 120 nM and less than 60 nM.
For `Cc1cnc(Nc2cnn(C)c2)nc1N1CC(C)(NC(=O)c2cccc(F)c2)C1` [E307] the same measures were less than 20 nM and less than 100 nM.
For `Cc1cnc(Nc2ccc(CN(C)C)cc2)nc1N1CC(C)(NC(=O)c2cccc(F)c2)C1` [E308] the same measures were less than 100 nM and less than 50 nM.
Turning to `Cc1cc(Nc2ncc(C)c(N3CC(C)(NC(=O)c4cccc(F)c4)C3)n2)sn1` [E309], the IC50 is less than 10 nM in experiment [1] and less than 20 nM in experiment [2].
Turning to `Cc1cnc(Nc2cccc(CN(C)C)c2)nc1N1CC(C)(NC(=O)c2cccc(F)c2)C1` [E310], the half-maximal inhibitory concentration (IC50) in experiment [1] was less than 20 nM; in experiment [2] it was less than 50 nM.
For `Cc1cnc(Nc2ccc(N3CCOCC3)cc2)nc1N1CC(C)(NC(=O)c2cccc(F)c2)C1` [E311] the same measures were less than 50 nM and less than 50 nM.
For `Cc1cc(Nc2ncc(C)c(N3CC(CC#N)(NC(=O)c4cccc(F)c4F)C3)n2)sn1` [E312] the same measures were less than 10 nM and less than 10 nM.
For `Cc1cc(Nc2ncc(C)c(N3CC(CC#N)(NC(=O)c4ccc(F)c(F)c4)C3)n2)sn1` [E313] the same measures were less than 20 nM and less than 50 nM.
For the molecule `Cc1cc(Nc2ncc(C)c(N3CC(CC#N)(NC(=O)c4cccc(Cl)c4)C3)n2)sn1` [E314], the IC50 in experiment [1] and in experiment [2] was less than 10 nM in each case.
`Cc1cc(Nc2ncc(C)c(N3CC(CC#N)(NC(=O)c4cccc(C(F)(F)F)c4)C3)n2)sn1` [E315]: the IC50 in experiment [1] was less than 10 nM; in experiment [2], less than 20 nM.
For `Cc1cc(Nc2ncc(C)c(N3CC(CC#N)(NC(=O)c4cc(F)cc(F)c4C)C3)n2)sn1` [E317] the same measures were less than 30 nM and less than 20 nM.
Consider `CCC1(NC(=O)c2cccc(F)c2)CN(c2nc(Nc3cc(C)ns3)ncc2C)C1` [E318B], for which the half-maximal inhibitory concentration (IC50) in experiment [1] and in experiment [2] was less than 10 nM each time.
Consider `CCC1(NC(=O)c2cccc(F)c2)CN(c2nc(Nc3cnn(C)c3)ncc2C)C1` [E318C], for which the results for the concentration for half-maximal inhibition (IC50) in experiment [1] and in experiment [2] were less than 10 nM and less than 50 nM, respectively.
For `Cc1cc(Nc2ncc(C)c(N3CC(CC#N)(NC(=O)c4cccc(F)c4C)C3)n2)sn1` [E318] the same measures were less than 50 nM and less than 30 nM.
For `Cc1cc(Nc2ncc(C)c(N3CC(CC#N)(NCc4cccc(Cl)c4)C3)n2)sn1` [E350] the same measures were less than 10 nM and less than 10 nM.
For `Cc1cnc(Nc2cnn(C)c2)nc1N1CC(CC#N)(NCc2cccc(Cl)c2)C1` [E351] the same measures were less than 20 nM and less than 50 nM.
As for `Cc1cc(Nc2ncc(C)c(N3CC(CC#N)(NC(C)c4cccc(F)c4)C3)n2)sn1` (stereo not drawn) [E352], the values for the IC50 in experiment [1] and in experiment [2] were less than 100 nM and less than 50 nM, respectively.
For `Cc1cc(Nc2ncc(C)c(N3CC(CC#N)(NC(=O)c4cncc(F)c4)C3)n2)sn1` [E353] the same measures were less than 20 nM and less than 50 nM.
